Test results taken from US20130266590A1, “DIMERIC IAP INHIBITORS” (NOVARTIS AG, priority 2010, published 2013).
Read-outs that look alike come from different tables or passages of the source.

Experiments:
XIAP-BIR3 = XIAP-BIR3 (Homo sapiens, UniProt P98170); assay: Biacore SPR solution competition binding assay vs smac7mer peptide, XIAP-BIR3; conditions: 100 nM XIAP-BIR3, read-out: XIAP-BIR3 Binding Biacore (Competitive) EC50
Description: (§1) The compounds described herein above were profiled using a cellular assay (using Panc3.27 tumor cells) and a binding assay to determine the competition between the compounds of the present invention and smac7mer peptide for XIAP-BIR3 and cIAP1-BIR3 binding groove occupancy.
(§2) The present method includes utility of a Surface plasmon resonance (SPR)-based biosensor (Biacore™, GE Healthcare, Uppsala, Sweden) to examine competition between the compounds of the present invention and smac7mer peptide for XIAP-BIR3 and cIAP1-BIR3 binding groove occupancy.
(§3) Biacore™ utilizes the phenomenon of surface plasmon resonance (SPR) to detect and measure binding interactions. In a typical Biacore experiment, one of the interacting molecules is immobilized on a flexible dextran matrix while the interacting partner is flowed over the derivatized surface. A binding interaction results in an increase in mass on the sensor surface and a corresponding direct change in the refractive index of the medium in the vicinity of the sensor surface. Changes in refractive index or signal are recorded in resonance units (R.U.) Signal changes due to association and dissociation of complexes are monitored in a non-invasive manner, continuously and in real-time, the results of which are reported in the form of a sensorgram.
(§4) Biacore™ T100 (GE Healthcare, Uppsala, Sweden) was used to conduct all experiments reported herein. Sensor surface preparation and interaction analyses were performed at 25° C. Buffer and Biacore reagents were purchased from GE Healthcare. Running buffer containing 10 mM Hepes, pH7.4, 150 mM sodium chloride, 1.25 mM Dithiothreitol, 2% Dimethyl sulfoxide and 0.05% polysorbate 20 was utilized throughout all experiments.
(§5) Biotinylated smac7mer peptide was diluted to 10 nM in running buffer and captured onto a sensor surface pre-derivatized with streptavidin (sensor chip SA) towards peptide surface densities in the range 40-100 R.U. Peptide captured surfaces were blocked with 500 μM PEO2-Biotin (Thermo Scientific).
(§6) Interaction analyses were performed by first equilibrating each compound within a six point seven fold compound dilution series in the range 1 μM to 0.06 nM with either 100 nM XIAP-BIR3 or 6 nM cIAP1-BIR3 for at least one hour during instrument start-up procedures. Protein compound mixtures were then injected over reference and smac7mer peptide surfaces in series for 60 seconds at a flow-rate of 60 μL/min. Surface regeneration was performed at the end of each analysis cycle by a 30 second injection of 10 mM Glycine, pH 2.5, 1M Sodium Chloride, 0.05% polysorbate 20. Additionally, control compound samples and control XIAP-BIR3 or cIAP1-BIR3 samples were prepared and run at regular intervals to monitor surface and assay performance.
(§7) Data analyses were carried out using Biacore™ T100 evaluation software v2.0 to validate assay quality. Binding level report points were plotted versus logarithmic compound concentration values and analyzed in Graphpad prism 5 via non-linear regression using a one-site competition model. EC50 values were generated and used as a measure of inhibitor potency.

cIAP1-BIR3 = cIAP1-BIR3 (Homo sapiens, UniProt Q13490); assay: Biacore SPR solution competition binding assay vs smac7mer peptide, cIAP1-BIR3; conditions: 6 nM cIAP1-BIR3, read-out: CIAP-BIR3 Binding Biacore (Competitive) EC50
Description: as §1, §2, §3, §4, §5, §6, §7

Panc3.27 tumor cells = assay: Cellular assay: Panc3.27 tumor cell proliferation (Cell Titer Glo); assay type: cell-based; conditions: Panc3.27 cells, 4000 cells per well, 72 hour growth, CTG readout, percent control growth; read-out: PANC proliferation IC50
Protocol: as §1
Cellular Assay—Treatment of Panc3.27 Tumor Cells with Dimeric IAP Antagonists
On day one adherent Panc3.27 cells are plated into two 96-well, clear, flat bottom plates. All wells in row A contain 90 uL of media. All wells in rows B-G contain a total volume of 90 uL per well and 4000 cells per well for Panc3.27 cell lines. Plates are then incubated overnight for 18 hours at 37° C., 5% CO2.
On day two cells are treated with the compounds of formula M-L-M′. Treatments are done in triplicate. The compounds are first serially diluted in DMSO and then added to media giving a final concentration of 0.2% DMSO when added to cells. Cells are treated with 10 uL of serially diluted compounds of formula M-L-M′ at a final concentration of 1000 nM, 200 nM, 40 nM, 8 nM, 1.6 nM, 0.32 nM, 0.06 nM, 0.013 nM, 0.0026 nM, and one untreated well. Plate two is used as a time zero plate.
To measure cell viability 50 uL of Cell Titer Glo (CTG) solution is added to row A, media only and B, cells and media. CTG is purchased from Promega Corporation catalog number G7573. The solution is prepared according to manufacturer's instructions. CTG measures the amount of ATP released from viable cells that is proportional to the number of cells in each well. After incubating for ten minutes with CTG plates are measured on a luminescent reader at 700 nm wavelength. Read time is approximately one second per well for a 96-well plate.
On day five 50 uL of CTG is added to plate one, rows A-G, incubated for 10 minutes at room temperature and read on a luminescent reader. Raw data is adjusted to account for the time zero plate as well as background noise. Triplicate values are averaged and percent control growth is calculated. Percent control growth is calculated using the following logical test: If well read data point (a) is greater than time zero data point (t=0), then 100*[(a)−(t=0)]/[(72 hour total growth)−(t=0)], OR 100*[(a)−(t=0)]/[(t=0)]. Data is represented by line graph with the concentration of compound on the x axis and percent control growth on the y axis.

[1] = SPR competition with captured smac7mer peptide, 25° C.

Sequence of cIAP1-BIR3 (Q13490 253-363 limits assumed): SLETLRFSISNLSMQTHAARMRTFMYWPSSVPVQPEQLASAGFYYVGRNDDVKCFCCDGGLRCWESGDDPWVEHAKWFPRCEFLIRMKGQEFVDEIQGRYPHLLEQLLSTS
Sequence of XIAP-BIR3 (P98170 241-356 limits assumed): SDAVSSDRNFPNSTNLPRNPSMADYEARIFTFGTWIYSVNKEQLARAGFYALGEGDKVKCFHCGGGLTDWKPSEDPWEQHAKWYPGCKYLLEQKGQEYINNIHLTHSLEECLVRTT

Row | EC50 (XIAP-BIR3; [1]) | EC50 (cIAP1-BIR3; Tested as the citrate salt (footnote 1), SPR competition with smac7mer peptide) | IC50 (Panc3.27 tumor cells) | EC50 (cIAP1-BIR3; [1]) | EC50 (XIAP-BIR3; Tested as the trifluoroacetate salt (footnote 2), SPR competition with smac7mer peptide) | SMILES
1 | 353 to 359 nM | 1.55 to 1.6 nM | 0.15 to 2.87 nM | – | – | CN[C@@H](C)C(=O)N[C@H](C(=O)N1CCC[C@H]1c1cncc(-c2ccc(F)c(C(=O)NCCCOCCOCCOCCOCCOCCCNC(=O)c3cc(-c4cncc([C@@H]5CCCN5C(=O)[C@@H](NC(=O)[C@H](C)NC)C5CCCCC5)c4)ccc3F)c2)c1)C1CCCCC1 [Example 1A-1]
2 | 135 to 136 nM | – | 2.11 to 7.69 nM | 1.1 to 1.11 nM | – | CN[C@@H](C)C(=O)N[C@H](C(=O)N1CCC[C@H]1c1cncc(-c2ccc(F)c(C(=O)NCCNC(=O)c3cc(-c4cncc([C@@H]5CCCN5C(=O)[C@@H](NC(=O)[C@H](C)NC)C5CCCCC5)c4)ccc3F)c2)c1)C1CCCCC1 [Example 2A-1]
3 | 347 to 353 nM | – | < 0.0026 nM | 0.77 to 0.79 nM | – | CN[C@@H](C)C(=O)N[C@H](C(=O)N1CCC[C@H]1c1cncc(-c2ccc(F)c(C(=O)NCc3ccc(CNC(=O)c4cc(-c5cncc([C@@H]6CCCN6C(=O)[C@@H](NC(=O)[C@H](C)NC)C6CCCCC6)c5)ccc4F)cc3)c2)c1)C1CCCCC1 [Example 2B-1, (S,S,S)—N,N′-(1,4-phenylenebis(methylene))bis(5-(5-((S)-1-((S)-2-cyclohexyl-2-((S)-2-(methylamino)propanamido)acetyl)pyrrolidin-2-yl)pyridin-3-yl)-2-fluorobenzamide)]
4 | – | – | < 0.0026 nM | 0.98 to 0.99 nM | 2330 to 2390 nM | CN[C@@H](C)C(=O)N[C@H](C(=O)N1CCC[C@H]1c1cncc(-c2ccc(F)c(C(=O)NCc3ccc(-c4ccc(CNC(=O)c5cc(-c6cncc([C@@H]7CCCN7C(=O)[C@@H](NC(=O)[C@H](C)NC)C7CCCCC7)c6)ccc5F)cc4)cc3)c2)c1)C1CCCCC1 [Example 2C-2, (S,S,S)—N,N′-(biphenyl-4,4′-diylbis(methylene))bis(5-(5-((S)-1-((S)-2-cyclohexyl-2-((S)-2-(methylamino)propanamido)acetyl)pyrrolidin-2-yl)pyridin-3-yl)-2-fluorobenzamide)]
5 | 1520 to 1920 nM | – | 0.0026 to 0.15 nM | 1.35 to 2.17 nM | – | CN[C@@H](C)C(=O)N[C@H](C(=O)N1CCC[C@H]1c1cncc(-c2ccc(F)c(C(=O)NCCCCCCCCCCNC(=O)c3cc(-c4cncc([C@@H]5CCCN5C(=O)[C@@H](NC(=O)[C@H](C)NC)C5CCCCC5)c4)ccc3F)c2)c1)C1CCCCC1 [Example 2D-1]
6 | > 1000 nM | – | 0.07 to 4.93 nM | 5.65 to 6.37 nM | – | CN[C@@H](C)C(=O)N[C@H](C(=O)N1CCC[C@H]1c1cncc(-c2ccc(F)c(C(=O)NCCCCCCCCCCCCNC(=O)c3cc(-c4cncc([C@@H]5CCCN5C(=O)[C@@H](NC(=O)[C@H](C)NC)C5CCCCC5)c4)ccc3F)c2)c1)C1CCCCC1 [Example 2E-1]
7 | 305 to 306 nM | – | 0.0026 to 0.01 nM | 1.34 to 1.36 nM | – | CN[C@@H](C)C(=O)N[C@H](C(=O)N1CCC[C@H]1c1cncc(-c2ccc(F)c(C(=O)NCCCCCCNC(=O)c3cc(-c4cncc([C@@H]5CCCN5C(=O)[C@@H](NC(=O)[C@H](C)NC)C5CCCCC5)c4)ccc3F)c2)c1)C1CCCCC1 [Example 2F-1]
8 | 426 to 495 nM | – | 0.0026 to 0.03 nM | 1.26 to 1.31 nM | – | CN[C@@H](C)C(=O)N[C@H](C(=O)N1CCC[C@H]1c1cncc(-c2ccc(F)c(C(=O)NCCCCCCCCNC(=O)c3cc(-c4cncc([C@@H]5CCCN5C(=O)[C@@H](NC(=O)[C@H](C)NC)C5CCCCC5)c4)ccc3F)c2)c1)C1CCCCC1 [Example 2G-1, (S,S,S)—N,N′-(octane-1,8-diyl)bis(5-(5-((S)-1-((S)-2-cyclohexyl-2-((S)-2-(methylamino)propanamido)acetyl)pyrrolidin-2-yl)pyridin-3-yl)-2-fluorobenzamide)]
9 | 244 to 252 nM | – | 0.03 to 0.07 nM | 1.84 to 1.89 nM | – | CN[C@@H](C)C(=O)N[C@H](C(=O)N1CCC[C@H]1c1cncc(-c2ccc(F)c(C(=O)NCCOCCOCCNC(=O)c3cc(-c4cncc([C@@H]5CCCN5C(=O)[C@@H](NC(=O)[C@H](C)NC)C5CCCCC5)c4)ccc3F)c2)c1)C1CCCCC1 [Example 2H-1]
10 | 318 to 326 nM | – | 0.0026 to 0.4 nM | 2.79 to 2.8 nM | – | CN[C@@H](C)C(=O)N[C@H](C(=O)N1CCC[C@H]1c1cncc(-c2ccc(F)c(C(=O)NCCCCNC(=O)c3cc(-c4cncc([C@@H]5CCCN5C(=O)[C@@H](NC(=O)[C@H](C)NC)C5CCCCC5)c4)ccc3F)c2)c1)C1CCCCC1 [Example 2I-1]
11 | 156 nM | – | 0.03 to 0.59 nM | 1.39 to 1.4 nM | – | CN[C@@H](C)C(=O)N[C@H](C(=O)N1CCC[C@H]1c1cncc(-c2ccc(F)c(C(=O)NCCCOCCOCCOCCCNC(=O)c3cc(-c4cncc([C@@H]5CCCN5C(=O)[C@@H](NC(=O)[C@H](C)NC)C5CCCCC5)c4)ccc3F)c2)c1)C1CCCCC1 [Example 2J-2]
12 | 321 to 322 nM | – | < 0.0026 nM | 1.65 to 1.66 nM | – | CN[C@@H](C)C(=O)N[C@H](C(=O)N1CCC[C@H]1c1cncc(-c2ccc(F)c(C(=O)N[C@H]3CC[C@H](NC(=O)c4cc(-c5cncc([C@@H]6CCCN6C(=O)[C@@H](NC(=O)[C@H](C)NC)C6CCCCC6)c5)ccc4F)CC3)c2)c1)C1CCCCC1 [Example 2K-1]
13 | 480 to 488 nM | – | 0.01 to 0.56 nM | 3.35 to 3.38 nM | – | CN[C@@H](C)C(=O)N[C@H](C(=O)N1CCC[C@H]1c1cncc(-c2ccc(F)c(C(=O)NCCCOCCOCCCNC(=O)c3cc(-c4cncc([C@@H]5CCCN5C(=O)[C@@H](NC(=O)[C@H](C)NC)C5CCCCC5)c4)ccc3F)c2)c1)C1CCCCC1 [Example 2L-2]
14 | 75.2 to 75.5 nM | – | 0.0026 to 0.02 nM | 1.27 to 1.36 nM | – | CN[C@@H](C)C(=O)N[C@H](C(=O)N1CCC[C@H]1c1cncc(-c2ccc(F)c(C(=O)NNC(=O)c3cc(-c4cncc([C@@H]5CCCN5C(=O)[C@@H](NC(=O)[C@H](C)NC)C5CCCCC5)c4)ccc3F)c2)c1)C1CCCCC1 [Example 2N-2]

Row | SMILES | EC50 (XIAP-BIR3; [1]) | EC50 (cIAP1-BIR3; Tested as the citrate salt (footnote 1), SPR competition with smac7mer peptide) | IC50 (Panc3.27 tumor cells) | EC50 (cIAP1-BIR3; [1]) | EC50 (XIAP-BIR3; Tested as the trifluoroacetate salt (footnote 2), SPR competition with smac7mer peptide)
15 | CN[C@@H](C)C(=O)N[C@H](C(=O)N1CCC[C@H]1c1cncc(-c2ccc(F)c(C(=O)N3CC4(C3)CN(C(=O)c3cc(-c5cncc([C@@H]6CCCN6C(=O)[C@@H](NC(=O)[C@H](C)NC)C6CCCCC6)c5)ccc3F)C4)c2)c1)C1CCCCC1 [Example 2M-2] | 176 to 177 nM | – | 9.02 to 40.8 nM | 3.74 to 3.75 nM | –
